# Earlier results as cited in patent publication US20260306436A1, “TRETINOIN LIPOSOME FORMULATIONS AND USES THEREOF TO TREAT CANCER” (Highfield BioPharmaceuticals Corporation, priority 2023, published 2026).
# Legend:
# BSA = conditions: stated for the release system with BSA
# [1] = background statement
# [2] = background statement; remark: listed apart in the source
smiles,measurement,setting,value
CC1=C(/C=C/C(C)=C/C=C/C(C)=C/C(=O)O)C(C)(C)CCC1 [all-trans retinoic acid],Protein binding rate,BSA,95%
same,Water solubility,[1],very low
same,Plasma half-life,[2],short
